Active and inactive are the calls of the source. The rule behind the calls is not given here.
Assays:
Type in all cases: functional
Exserohilum rostratum [1] = experiment: Antifungal activity against Setosphaeria rostrata assessed as growth inhibition at 1200 ug/ml; conditions: read-out: IZ
Fusarium oxysporum [2] = experiment: Antifungal activity against Fusarium oxysporum assessed as growth inhibition at 600 ug/ml
Colletotrichum falcatum [3] = experiment: Antifungal activity against Glomerella tucumanensis assessed as growth inhibition at 900 ug/ml
Klebsiella aerogenes [4] = experiment: Antibacterial activity against Enterobacter aerogenes assessed as growth inhibition at 600 ug/ml by NCCLS […] method; conditions: read-out: IZ
Klebsiella pneumoniae [5] = experiment: Antibacterial activity against Klebsiella pneumoniae assessed as growth inhibition at 600 ug/ml by NCCLS […] method; conditions: read-out: IZ
Klebsiella aerogenes [6] = experiment: Antibacterial activity against Enterobacter aerogenes assessed as growth inhibition at 900 ug/ml by NCCLS […] method; conditions: read-out: IZ
Fusarium oxysporum [7] = experiment: Antifungal activity against Fusarium oxysporum assessed as growth inhibition at 300 ug/ml
Fusarium oxysporum [8] = experiment: Antifungal activity against Fusarium oxysporum assessed as growth inhibition at 1200 ug/ml
Priestia megaterium [9] = experiment: Antibacterial activity against Bacillus megaterium assessed as growth inhibition at 600 ug/ml by NCCLS […] method
Priestia megaterium [10] = experiment: Antibacterial activity against Bacillus megaterium assessed as growth inhibition at 900 ug/ml by NCCLS […] method
Escherichia coli [11] = experiment: Antibacterial activity against Escherichia coli assessed as growth inhibition at 600 ug/ml by NCCLS […] method; conditions: read-out: IZ
Candida albicans [12] = experiment: Antifungal activity against Candida albicans assessed as growth inhibition at 900 ug/ml; conditions: read-out: IZ
Proteus mirabilis [13] = experiment: Antibacterial activity against Proteus mirabilis assessed as growth inhibition at 600 ug/ml by NCCLS […] method; conditions: read-out: IZ
Bacillus subtilis [14] = experiment: Antibacterial activity against Bacillus subtilis assessed as growth inhibition at 900 ug/ml by NCCLS […] method; conditions: read-out: IZ
Exserohilum rostratum [15] = experiment: Antifungal activity against Setosphaeria rostrata assessed as growth inhibition at 300 ug/ml; conditions: read-out: IZ
Candida albicans [16] = experiment: Antifungal activity against Candida albicans assessed as growth inhibition at 1200 ug/ml; conditions: read-out: IZ
Escherichia coli [17] = experiment: Antibacterial activity against Escherichia coli assessed as growth inhibition at 900 ug/ml by NCCLS […] method; conditions: read-out: IZ
Proteus vulgaris [18] = experiment: Antibacterial activity against Proteus vulgaris assessed as growth inhibition at 600 ug/ml by NCCLS […] method; conditions: read-out: IZ
Streptococcus pyogenes [19] = experiment: Antibacterial activity against Streptococcus pyogenes assessed as growth inhibition at 900 ug/ml by NCCLS […] method; conditions: read-out: IZ
Klebsiella pneumoniae [20] = experiment: Antibacterial activity against Klebsiella pneumoniae assessed as growth inhibition at 900 ug/ml by NCCLS […] method; conditions: read-out: IZ
Bacillus pumilus [21] = experiment: Antibacterial activity against Bacillus pumilus assessed as growth inhibition at 600 ug/ml by NCCLS […] method; conditions: read-out: IZ
Bacillus subtilis [22] = experiment: Antibacterial activity against Bacillus subtilis assessed as growth inhibition at 600 ug/ml by NCCLS […] method; conditions: read-out: IZ
Colletotrichum falcatum [23] = experiment: Antifungal activity against Glomerella tucumanensis assessed as growth inhibition at 300 ug/ml
Staphylococcus aureus [24] = experiment: Antibacterial activity against Staphylococcus aureus assessed as growth inhibition at 900 ug/ml by NCCLS […] method; conditions: read-out: IZ
Fusarium oxysporum [25] = experiment: Antifungal activity against Fusarium oxysporum assessed as growth inhibition at 900 ug/ml
Candida albicans [26] = experiment: Antifungal activity against Candida albicans assessed as growth inhibition at 600 ug/ml; conditions: read-out: IZ
Candida albicans [27] = experiment: Antifungal activity against Candida albicans assessed as growth inhibition at 300 ug/ml; conditions: read-out: IZ
Streptococcus pyogenes [28] = experiment: Antibacterial activity against Streptococcus pyogenes assessed as growth inhibition at 600 ug/ml by NCCLS […] method; conditions: read-out: IZ
Proteus vulgaris [29] = experiment: Antibacterial activity against Proteus vulgaris assessed as growth inhibition at 900 ug/ml by NCCLS […] method; conditions: read-out: IZ
Exserohilum rostratum [30] = experiment: Antifungal activity against Setosphaeria rostrata assessed as growth inhibition at 600 ug/ml; conditions: read-out: IZ
Colletotrichum falcatum [31] = experiment: Antifungal activity against Glomerella tucumanensis assessed as growth inhibition at 600 ug/ml
Colletotrichum falcatum [32] = experiment: Antifungal activity against Glomerella tucumanensis assessed as growth inhibition at 1200 ug/ml
Proteus mirabilis [33] = experiment: Antibacterial activity against Proteus mirabilis assessed as growth inhibition at 900 ug/ml by NCCLS […] method; conditions: read-out: IZ
Bacillus pumilus [34] = experiment: Antibacterial activity against Bacillus pumilus assessed as growth inhibition at 900 ug/ml by NCCLS […] method; conditions: read-out: IZ
Staphylococcus aureus [35] = experiment: Antibacterial activity against Staphylococcus aureus assessed as growth inhibition at 600 ug/ml by NCCLS […] method; conditions: read-out: IZ
Exserohilum rostratum [36] = experiment: Antifungal activity against Setosphaeria rostrata assessed as growth inhibition at 900 ug/ml; conditions: read-out: IZ

Structure (SMILES)	zone of inhibition at 1200 µg/mL (Exserohilum rostratum [1]) [mm]	zone of inhibition at 600 µg/mL (Klebsiella aerogenes [4]) [mm]	zone of inhibition at 600 µg/mL (Klebsiella pneumoniae [5]) [mm]	zone of inhibition at 900 µg/mL (Klebsiella aerogenes [6]) [mm]	zone of inhibition at 600 µg/mL (Escherichia coli [11]) [mm]	zone of inhibition at 900 µg/mL (Candida albicans [12]) [mm]	zone of inhibition at 600 µg/mL (Proteus mirabilis [13]) [mm]	zone of inhibition at 900 µg/mL (Bacillus subtilis [14]) [mm]	zone of inhibition at 300 µg/mL (Exserohilum rostratum [15]) [mm]	zone of inhibition at 1200 µg/mL (Candida albicans [16]) [mm]	zone of inhibition at 900 µg/mL (Escherichia coli [17]) [mm]	zone of inhibition at 600 µg/mL (Proteus vulgaris [18]) [mm]	zone of inhibition at 900 µg/mL (Streptococcus pyogenes [19]) [mm]	zone of inhibition at 900 µg/mL (Klebsiella pneumoniae [20]) [mm]	zone of inhibition at 600 µg/mL (Bacillus pumilus [21]) [mm]	zone of inhibition at 600 µg/mL (Bacillus subtilis [22]) [mm]	zone of inhibition at 900 µg/mL (Staphylococcus aureus [24]) [mm]	zone of inhibition at 600 µg/mL (Candida albicans [26]) [mm]	zone of inhibition at 300 µg/mL (Candida albicans [27]) [mm]	zone of inhibition at 600 µg/mL (Streptococcus pyogenes [28]) [mm]	other results
COc1ccc2c(OCCCN3CCN(Cc4ccccc4)CC3)c(-c3ccccc3)c(=O)oc2c1	24.6	3.8	2.56	7.53	2.98	12	5.55	12	4.25	22.3	5.76	6.54	11.9	4.98	2.27	6.56	11.2	5.43	2.87	6.54	growth inhibition (GI) (Fusarium oxysporum [2]): inactive; growth inhibition (GI) (Colletotrichum falcatum [3]): inactive; growth inhibition (GI) (Fusarium oxysporum [7]): inactive; growth inhibition (GI) (Fusarium oxysporum [8]): inactive; growth inhibition (GI) (Priestia megaterium [9]): inactive; growth inhibition (GI) (Priestia megaterium [10]): inactive; growth inhibition (GI) (Colletotrichum falcatum [23]): inactive; growth inhibition (GI) (Fusarium oxysporum [25]): inactive; zone of inhibition at 900 µg/mL (Proteus vulgaris [29]): 12.8 mm; zone of inhibition at 600 µg/mL (Exserohilum rostratum [30]): 8.56 mm; growth inhibition (GI) (Colletotrichum falcatum [31]): inactive; growth inhibition (GI) (Colletotrichum falcatum [32]): inactive; zone of inhibition at 900 µg/mL (Proteus mirabilis [33]): 11.3 mm; zone of inhibition at 900 µg/mL (Bacillus pumilus [34]): 4.21 mm; zone of inhibition at 600 µg/mL (Staphylococcus aureus [35]): 7.89 mm; zone of inhibition at 900 µg/mL (Exserohilum rostratum [36]): 15.8 mm
CN[C@@H]1[C@H](O[C@H]2[C@H](O[C@H]3[C@H](O)[C@@H](O)[C@H](N=C(N)N)[C@@H](O)[C@@H]3N=C(N)N)O[C@@H](C)[C@]2(O)C=O)O[C@@H](CO)[C@H](O)[C@H]1O [STREPTOMYCIN]	–	4.47	3.24	8.76	3.06	–	12.8	16.2	–	–	6.14	8.9	16.5	6.54	7.25	8.44	20	–	–	8.19	zone of inhibition at 600 µg/mL (Priestia megaterium [9]; read-out: IZ): 6.23 mm; zone of inhibition at 900 µg/mL (Priestia megaterium [10]; read-out: IZ): 12.8 mm; zone of inhibition at 900 µg/mL (Proteus vulgaris [29]): 16.1 mm; zone of inhibition at 900 µg/mL (Proteus mirabilis [33]): 20.3 mm; zone of inhibition at 900 µg/mL (Bacillus pumilus [34]): 14.5 mm; zone of inhibition at 600 µg/mL (Staphylococcus aureus [35]): 10.3 mm
CCC(C)n1ncn(-c2ccc(N3CCN(c4ccc(OCC5COC(Cn6cncn6)(c6ccc(Cl)cc6Cl)O5)cc4)CC3)cc2)c1=O (configuration not stated) [ITRACONAZOLE]	27.4	–	–	–	–	12	–	–	3.56	23	–	–	–	–	–	–	–	5.35	2.67	–	zone of inhibition at 600 µg/mL (Fusarium oxysporum [2]; read-out: IZ): 10.8 mm; zone of inhibition at 900 µg/mL (Colletotrichum falcatum [3]; read-out: IZ): 18.3 mm; zone of inhibition at 300 µg/mL (Fusarium oxysporum [7]; read-out: IZ): 5.46 mm; zone of inhibition at 1200 µg/mL (Fusarium oxysporum [8]; read-out: IZ): 34.4 mm; zone of inhibition at 300 µg/mL (Colletotrichum falcatum [23]; read-out: IZ): 4.45 mm; zone of inhibition at 900 µg/mL (Fusarium oxysporum [25]; read-out: IZ): 20 mm; zone of inhibition at 600 µg/mL (Exserohilum rostratum [30]): 7.56 mm; zone of inhibition at 600 µg/mL (Colletotrichum falcatum [31]; read-out: IZ): 9.34 mm; zone of inhibition at 1200 µg/mL (Colletotrichum falcatum [32]; read-out: IZ): 33.8 mm; zone of inhibition at 900 µg/mL (Exserohilum rostratum [36]): 14.8 mm
